Measurements from patent US9487479B2, “Small molecule inhibitors of N-terminus activation of the androgen receptor” (The University of British Columbia, priority 2008, dated 2016).

Experiments:
LNCaP cells = test: Cytotoxicity: cell morphology of treated LNCaP cells; assay type: cell-based, human; details: LNCaP cells treated for 48 h, 10 μM
From the text: From this extract, the pure active compound, Sintokamide A (CB3.1) was isolated and to ensure that the inhibitory effect of CB3.1 was not due to generally cytotoxicity, cell morphology of LNCaP cells was examined. […] Cells treated with R1881 are also shown to provide an indication of cell number and for comparison.

[1] = target: T1, glucocorticoid receptor (GR) (Homo sapiens, UniProt P04150); test: GRE-luciferase reporter assay in LNCaP cells transfected with hGR; assay type: cell-based; details: 5 μg/ml, dexamethasone 10 nM, 24 h
T1 construct: Cells were co-transfected with expression plasmids for full-length hGR and PRβ; expressed in transfected cells; host or cells: LNCaP cells
T1 sequence (P04150 1-777): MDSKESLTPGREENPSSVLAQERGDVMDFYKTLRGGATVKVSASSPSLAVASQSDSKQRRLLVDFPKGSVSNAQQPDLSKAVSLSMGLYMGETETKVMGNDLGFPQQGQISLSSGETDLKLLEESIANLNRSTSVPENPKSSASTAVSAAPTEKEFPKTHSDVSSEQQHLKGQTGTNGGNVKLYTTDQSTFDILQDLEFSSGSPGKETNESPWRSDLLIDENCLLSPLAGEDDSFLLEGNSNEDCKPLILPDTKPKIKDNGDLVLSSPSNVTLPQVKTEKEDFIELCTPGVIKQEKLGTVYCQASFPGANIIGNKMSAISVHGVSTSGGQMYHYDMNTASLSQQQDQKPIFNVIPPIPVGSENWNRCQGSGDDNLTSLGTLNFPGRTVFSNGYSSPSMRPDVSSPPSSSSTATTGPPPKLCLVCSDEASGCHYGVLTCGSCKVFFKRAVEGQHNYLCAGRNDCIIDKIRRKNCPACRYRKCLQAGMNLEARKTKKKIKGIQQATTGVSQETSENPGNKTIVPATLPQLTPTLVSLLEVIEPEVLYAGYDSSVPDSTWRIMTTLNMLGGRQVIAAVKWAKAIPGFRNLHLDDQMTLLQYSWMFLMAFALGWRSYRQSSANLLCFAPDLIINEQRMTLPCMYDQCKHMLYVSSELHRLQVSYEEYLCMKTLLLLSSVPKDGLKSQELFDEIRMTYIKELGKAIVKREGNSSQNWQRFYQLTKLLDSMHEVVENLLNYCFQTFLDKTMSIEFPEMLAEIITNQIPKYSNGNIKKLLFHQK
From the text: White bars represent no steroid (ethanol control). Wherein glucocorticoid receptor (GR) and progesterone receptor (PR).
Sequence similarities of amino acids in the AR with related human steroid receptors (glucocorticoid receptor (GR) and progesterone receptor (PR)) are significant in some domains such as the DNA-binding-domain (DBD). Although the AR-NTD shares less than 15% homology with the PR and GR, these receptors do interact with some of the same proteins such as SRC-1 (steroid receptor coactivator-1). Therefore, reporter gene assays were used to determine if candidate compounds that block AR activity have any effect on GR and PR transcriptional activity. Cells were co-transfected with expression plasmids for full-length hGR and PRβ and the relative reporter (i.e., pGR-Luc or PRE-E1b-Luc reporters). Cells were then treated with ethanol vehicle, dexamethasone (GR), 4-pregnene-3,20 dione (progesterone) (PR) followed by measurement of luciferase activity.

[2] = Animal body weight during the LNCaP xenograft experiment; assay type: in vivo, mice
Method: The subcutaneous xenograft model was used to test whether sintokamides that inhibit activation of the androgen receptor in vitro have any effect on these tumors. CB3.1 was tested in vivo using the LNCaP subcutaneous xenograft model. […] LNCaP human prostate cancer cells express endogenous androgen receptor (AR) and prostate-specific antigen (PSA), and progress to androgen independence in castrated hosts. LNCaP cells (10^6/ml) were implanted subcutaneously into NOD-SCID male mice that were at least 8 weeks in age. The cells were suspended in 75 μl of RPMI medium 1640 (5% FBS) with 75 μl of Matrigel and injected into the flank region of the host under anesthesia. LNCaP cells were implanted subcutaneously into NOD-SCID male mice and the animals were castrated when the tumors were approximately 100 mm^3 (mean=[…]; n=18) and randomized into two groups. One week after castration the animals were treated every 3 days with an intratumoral dose of 30 mg/kg body weight of CB3.1 or matching volume of vehicle (control, DMSO). […] Fifteen days after the first injection of CB3.1, the tumors were 111.81%±38.12 the tumor volume on the day of the 1st injection. While 15 days after injection of DMSO, the tumors were 180.27%±111.67 the tumor volume on the day of the 1st injection. Serum PSA provides an indication of prognosis. For animals receiving CB3.1, serum PSA was 98.47%±170.51 on day 15 after the 1st injection. […] Tumor volume and serum PSA values were consistent with CB3.1 reducing tumor burden and serum PSA compared to vehicle-treated animals.

Structure (SMILES): CCC(=O)N[C@H](C[C@H](C)C(Cl)(Cl)Cl)C(=O)N1C(=O)C=C(OC)[C@@H]1C[C@H](C)C(Cl)Cl [CB3.1, Sintokamide A]
- signs of toxicity (cell morphology) (LNCaP cells): no obvious signs of toxicity
- GRE-luciferase activity in response to ligand [1]: did not inhibit
- change in animal body weight ([2]; duration of the experiment, intratumoral 30 mg/kg every 3 days): No change in animal body weight
- animal body weight, finish ([2]; finish of experiment, intratumoral 30 mg/kg every 3 days): 25.0±1.4 grams
- animal body weight, start ([2]; start of experiment): 24.6±1.1 grams
